From US10669272B2, “Substituted naphthyridinone compounds useful as T cell activators” (BRISTOL-MYERS SQUIBB COMPANY, priority 2018, dated 2020)
Like-named read-outs stand apart in the source and are kept apart here.

What was measured:
Human venous whole blood = assay: Human whole blood IFN-γ assay; format: cell-based; conditions: human whole blood, normalized to 3 μM reference compound with anti-CD3 plus anti-CD28 as 100% activation, read-out: INFg Whole Blood Normalized Agonist EC50;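 also: blood from healthy donors exposed to compound for 1 h before stimulation with anti-CD3 and anti-CD28 at 1 µg/mL each, IFN-γ quantified in supernatant by AlphaLISA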
Protocol: Human Whole Blood IFN-γ Assay
Human venous whole blood (22.5 μL per well), obtained from healthy donors, was pre-treated with compounds for one hour at 37° C. in a humidified 95% air/5% CO2 incubator. The blood was stimulated with 2.5 μL anti-human CD3 and anti-CD28 mAb at a final concentration of 1 μg/mL each for 24 hours at 37° C. IFN-γ in the supernatants was measured using AlphLISA kit (Cat # AL217).

human DGKζ = molecular target: T1, human DGKζ (Homo sapiens, UniProt Q13574); assay: DGKζ LIPGLO assay (extruded liposome substrate), in vitro DGK inhibition; format: biochemical; conditions: liposome (LIPGLO) assay; read-out: DGKz LIPGLO IC50
T1 construct: TVMV protease cleavage site (C); Hexa-His (C); made in house; host or cells: Sf9 insect cells (baculovirus, Bac-to-Bac)
T1 sequence (Q13574 with tags, fused parts or gaps isoform Q13574-4): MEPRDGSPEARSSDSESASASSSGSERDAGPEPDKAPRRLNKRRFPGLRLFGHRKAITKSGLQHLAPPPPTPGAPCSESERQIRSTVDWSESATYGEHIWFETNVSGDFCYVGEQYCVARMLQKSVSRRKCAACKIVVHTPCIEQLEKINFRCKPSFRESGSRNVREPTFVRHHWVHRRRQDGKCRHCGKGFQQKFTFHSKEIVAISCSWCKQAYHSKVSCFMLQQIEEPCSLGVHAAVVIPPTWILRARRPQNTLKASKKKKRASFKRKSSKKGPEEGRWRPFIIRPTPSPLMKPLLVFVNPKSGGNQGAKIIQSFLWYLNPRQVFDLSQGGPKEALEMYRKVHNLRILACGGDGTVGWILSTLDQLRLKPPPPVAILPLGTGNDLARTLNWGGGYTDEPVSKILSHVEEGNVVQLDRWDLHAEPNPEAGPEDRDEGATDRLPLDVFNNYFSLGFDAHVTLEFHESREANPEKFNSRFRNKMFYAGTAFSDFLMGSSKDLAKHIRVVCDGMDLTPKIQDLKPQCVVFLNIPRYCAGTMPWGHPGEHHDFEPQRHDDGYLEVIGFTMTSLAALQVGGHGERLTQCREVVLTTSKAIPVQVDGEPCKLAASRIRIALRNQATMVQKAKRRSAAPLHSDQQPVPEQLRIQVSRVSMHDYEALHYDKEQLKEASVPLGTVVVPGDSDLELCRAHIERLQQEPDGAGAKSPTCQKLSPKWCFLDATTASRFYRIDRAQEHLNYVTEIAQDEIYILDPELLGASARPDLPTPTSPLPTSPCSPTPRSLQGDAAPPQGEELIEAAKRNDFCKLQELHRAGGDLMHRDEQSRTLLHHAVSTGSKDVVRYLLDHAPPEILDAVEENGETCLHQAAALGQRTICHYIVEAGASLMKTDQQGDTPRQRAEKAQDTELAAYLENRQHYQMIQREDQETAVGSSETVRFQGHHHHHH

human DGKα = molecular target: T2, human DGKα (Homo sapiens, UniProt P23743); assay: DGKα LIPGLO assay (extruded liposome substrate), in vitro DGK inhibition; format: biochemical; conditions: liposome (LIPGLO) assay; read-out: DGKa LIPGLO IC50
T2 construct: TVMV protease cleavage site (C); Hexa-His (C); made in house; host or cells: Sf9 insect cells (baculovirus, Bac-to-Bac)
T2 sequence (P23743 with tags, fused parts or gaps): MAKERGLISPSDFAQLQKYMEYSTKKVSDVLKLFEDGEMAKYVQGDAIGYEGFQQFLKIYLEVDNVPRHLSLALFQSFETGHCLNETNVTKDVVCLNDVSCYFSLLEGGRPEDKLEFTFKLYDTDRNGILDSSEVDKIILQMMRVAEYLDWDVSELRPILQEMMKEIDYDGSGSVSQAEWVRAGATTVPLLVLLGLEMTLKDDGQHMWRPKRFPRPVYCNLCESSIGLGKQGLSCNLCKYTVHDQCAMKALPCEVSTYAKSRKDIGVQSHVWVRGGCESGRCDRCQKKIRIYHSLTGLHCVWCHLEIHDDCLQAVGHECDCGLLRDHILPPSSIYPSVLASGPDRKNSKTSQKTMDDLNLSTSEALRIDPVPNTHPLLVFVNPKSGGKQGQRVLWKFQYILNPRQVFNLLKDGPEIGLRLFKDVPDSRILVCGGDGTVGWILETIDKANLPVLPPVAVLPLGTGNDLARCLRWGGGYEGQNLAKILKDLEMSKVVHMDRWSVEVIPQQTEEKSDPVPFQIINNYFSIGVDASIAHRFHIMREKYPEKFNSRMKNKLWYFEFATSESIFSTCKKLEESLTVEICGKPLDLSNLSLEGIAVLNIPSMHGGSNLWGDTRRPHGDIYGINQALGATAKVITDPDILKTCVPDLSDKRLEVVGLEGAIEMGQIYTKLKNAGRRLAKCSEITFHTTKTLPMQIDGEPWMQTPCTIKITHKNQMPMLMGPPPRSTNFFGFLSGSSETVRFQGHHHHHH

SMILES	EC50 (Human venous whole blood) [nM]	IC50 (human DGKζ) [nM]	IC50 (human DGKα) [nM]	EC50 (Human venous whole blood; Homo sapiens, 24 h) [nM]
CC[C@@H]1CN(c2cc(=O)n(C)c3ccc(C#N)nc23)[C@@H](C)CN1C(C)c1ccc(C2CC2)cc1F (single isomer, unassigned) [Example 1340]	80	40	630	
CC[C@@H]1CN(c2cc(=O)n(C)c3ccc(C#N)nc23)[C@@H](C)CN1C(C)c1ccc(C2CC2)cc1F (single isomer, unassigned) [Example 1341]	2000	1400	4400	
CC[C@@H]1CN(c2cc(=O)n(C)c3ccc(C#N)nc23)[C@@H](C)CN1C(C)c1ccc(C#N)cc1 (single isomer, unassigned) [Example 1345]	480	75	41	
CC[C@@H]1CN(c2cc(=O)n(C)c3ccc(C#N)nc23)[C@@H](C)CN1C(C)c1ccc(C#N)cc1 (single isomer, unassigned) [Example 1346]	6000	450	52	
CC[C@@H]1CN(c2cc(=O)n(C)c3ccc(C#N)nc23)[C@@H](C)CN1C(C)c1ccc(OC(C)C)cc1 (single isomer, unassigned) [Example 1348]	29	15	110	
CC[C@@H]1CN(c2cc(=O)n(C)c3ccc(C#N)nc23)[C@@H](C)CN1C(C)c1ccc(OC(C)C)cc1 (single isomer, unassigned) [Example 1349]	580	2200	5400	
CC[C@@H]1CN(c2cc(=O)n(C)c3ccc(C#N)nc23)[C@@H](C)CN1C(C)c1ccc(OC)cc1 (single isomer, unassigned) [Example 1350]	30	11	97	
CC[C@@H]1CN(c2cc(=O)n(C)c3ccc(C#N)nc23)[C@@H](C)CN1C(C)c1ccc(OC)cc1 (single isomer, unassigned) [Example 1351]	740	780	1100	
CC[C@@H]1CN(c2cc(=O)n(C)c3ccc(C#N)nc23)[C@@H](C)CN1C(C)c1ccc(Cl)cc1F (single isomer, unassigned) [Example 1352]		16	120	28
CC[C@H]1CN(C(C)c2ccc(C3CC3)cc2)[C@H](CC)CN1c1cc(=O)n(C)c2ccc(C#N)nc12 (single isomer, unassigned) [Example 1355]	28	33	62	
CC[C@H]1CN(C(C)c2ccc(C3CC3)cc2)[C@H](CC)CN1c1cc(=O)n(C)c2ccc(C#N)nc12 (single isomer, unassigned) [Example 1356]	1300	3400	1900	
CC[C@H]1CN(C(C)c2ccc(C3CC3)cc2F)[C@H](CC)CN1c1cc(=O)n(C)c2ccc(C#N)nc12 (single isomer, unassigned) [Example 1358]		680	1700	1200
CCC(c1ccc(C2CC2)cc1F)N1C[C@H](CC)N(c2cc(=O)n(C)c3ccc(C#N)nc23)C[C@H]1CC (single isomer, unassigned) [Example 1359]	44	25	52	
CCC(c1ccc(C2CC2)cc1F)N1C[C@H](CC)N(c2cc(=O)n(C)c3ccc(C#N)nc23)C[C@H]1CC (single isomer, unassigned) [Example 1360]	700	110	830	
CC[C@H]1CN(C(C)c2ccc(C(F)(F)F)cc2F)[C@H](CC)CN1c1cc(=O)n(C)c2ccc(C#N)nc12 (single isomer, unassigned) [Example 1364]	58	29	150	
CC[C@H]1CN(C(C)c2ccc(C(F)(F)F)cc2F)[C@H](CC)CN1c1cc(=O)n(C)c2ccc(C#N)nc12 (single isomer, unassigned) [Example 1365]	2200	480	480	
CC[C@H]1CN(C(C)c2ccc(OC)cc2)[C@H](CC)CN1c1cc(=O)n(C)c2ccc(C#N)nc12 (single isomer, unassigned) [Example 1366]	11	15	24	
CC[C@H]1CN(C(C)c2ccc(OC)cc2)[C@H](CC)CN1c1cc(=O)n(C)c2ccc(C#N)nc12 (single isomer, unassigned) [Example 1367]	1900	2900	170	
CC[C@H]1CN(C(C)c2ccc3c(c2)OC(F)(F)O3)[C@H](CC)CN1c1cc(=O)n(C)c2ccc(C#N)nc12 (single isomer, unassigned) [Example 1368]	63	34	330	
CC[C@H]1CN(C(C)c2ccc3c(c2)OC(F)(F)O3)[C@H](CC)CN1c1cc(=O)n(C)c2ccc(C#N)nc12 (single isomer, unassigned) [Example 1369]	1300	750	1400	

SMILES	EC50 (Human venous whole blood) [nM]	IC50 (human DGKζ) [nM]	IC50 (human DGKα) [nM]	EC50 (Human venous whole blood; Homo sapiens, 24 h) [nM]
CC[C@H]1CN(C(C)c2ccc(OC(F)(F)F)cc2F)[C@H](CC)CN1c1cc(=O)n(C)c2ccc(C#N)nc12 (single isomer, unassigned) [Example 1371]	150	58	21	
CC[C@H]1CN(C(C)c2ccc(OC(F)(F)F)cc2F)[C@H](CC)CN1c1cc(=O)n(C)c2ccc(C#N)nc12 (single isomer, unassigned) [Example 1372]	1400	1700	460	
CC[C@H]1CN(C(C)c2ccc(OC(F)F)cc2)[C@H](CC)CN1c1cc(=O)n(C)c2ccc(C#N)nc12 (single isomer, unassigned) [Example 1373]	95	32	9.5	
CC[C@H]1CN(C(C)c2ccc(OC(F)F)cc2)[C@H](CC)CN1c1cc(=O)n(C)c2ccc(C#N)nc12 (single isomer, unassigned) [Example 1374]	2700	280	290	
CC(c1ccc(OC(F)F)cc1)N1C[C@H](C)N(c2c(C#N)c(=O)n(C)c3ccc(C#N)nc23)C[C@H]1C (single isomer, unassigned) [Example 1375]		890	190	1800
CCC(c1ccc(OC(F)(F)F)cc1F)N1C[C@H](CC)N(c2cc(=O)n(C)c3ccc(C#N)nc23)C[C@H]1C (single isomer, unassigned) [Example 1377]	2000	270	29	
CCC(c1ccc(OC(F)(F)F)cc1F)N1C[C@H](CC)N(c2cc(=O)n(C)c3ccc(C#N)nc23)C[C@H]1C (single isomer, unassigned) [Example 1378]	9500	2800	1400	
CC[C@H]1CN(C(C)c2ccc(OC(F)F)cc2)[C@H](C)CN1c1cc(=O)n(C)c2ccc(C#N)nc12 (single isomer, unassigned) [Example 1379]	510	160	8.8	
CCC(c1cc(OC(F)(F)F)ccc1F)N1C[C@H](CC)N(c2cc(=O)n(C)c3ccc(C#N)nc23)C[C@H]1C (single isomer, unassigned) [Example 1380]	470	180	850	
CCC(c1cc(OC(F)(F)F)ccc1F)N1C[C@H](CC)N(c2cc(=O)n(C)c3ccc(C#N)nc23)C[C@H]1C (single isomer, unassigned) [Example 1381]	20000	2100	19000	
CC[C@H]1CN(C(C)c2cc(F)c(F)c(F)c2)[C@H](C)CN1c1cc(=O)n(C)c2ccc(C#N)nc12 (single isomer, unassigned) [Example 1383]		480	970	7000
CC(c1ccc(OC(F)(F)F)cc1)N1C[C@H](C)N(c2cc(=O)n(C)c3ccc(C#N)nc23)C[C@H]1CO (single isomer, unassigned) [Example 1386]	3900	2200	140	
CC(c1ccc(OC(F)(F)F)cc1)N1C[C@H](C)N(c2cc(=O)n(C)c3ccc(C#N)nc23)C[C@H]1CO (single isomer, unassigned) [Example 1387]	20000	12000	2600	
C[C@H]1CN(C(c2ccc(F)cc2)c2ccc(C(F)(F)F)cn2)[C@H](CO)CN1c1cc(=O)n(C)c2ccc(C#N)nc12 (single isomer, unassigned) [Example 1388]		2800	1100	880
C[C@H]1CN(C(c2ccc(F)cc2)c2ccc(C(F)(F)F)cn2)[C@H](CO)CN1c1cc(=O)n(C)c2ccc(C#N)nc12 (single isomer, unassigned) [Example 1389]	920	880	170	
C[C@H]1CN(C(c2ccc(F)cc2)c2ccon2)[C@H](CO)CN1c1cc(=O)n(C)c2ccc(C#N)nc12 (single isomer, unassigned) [Example 1391]	700	2000	150	
C[C@H]1CN(C(c2ccc(F)cc2)c2ccon2)[C@H](CO)CN1c1cc(=O)n(C)c2ccc(C#N)nc12 (single isomer, unassigned) [Example 1392]	14000	3800	1900	
COC[C@@H]1CN(c2cc(=O)n(C)c3ccc(C#N)nc23)[C@@H](C)CN1C(c1ccc(F)cc1)c1nc(C2CC2)no1 (single isomer, unassigned) [Example 1394]		37	53	450
COC[C@@H]1CN(c2cc(=O)n(C)c3ccc(C#N)nc23)[C@@H](C)CN1C(c1ccc(F)cc1)c1nc(C2CC2)cs1 (single isomer, unassigned) [Example 1396]	26	12	62	
